Experimental data published in BindingDB's records for doi:10.1021/acs.biochem.7b00178 (University of Waterloo, 2017).

Columns and labels:
[1] = target: Phosphoenolpyruvate carboxykinase, cytosolic [GTP] [H477R] (Rat, UniProt P07379, H477R); experiment: PEPCK Inhibition Assay
Method: (§1) The inhibition of H477R PEPCK by β-sulfopyruvate (βSP), oxalate, and GMPPCP was conducted in the direction of PEP synthesis (OAA → PEP). The Michaelis constant of OAA was determined at various fixed concentrations of β-SP (0−100 μM) or oxalate (0−1000 μM), and the Michaelis constant for GTP was determined at various fixed concentrations of GMPPCP (0-800 μM).

[2] = target: T1, Phosphoenolpyruvate carboxykinase, cytosolic [GTP] (Rattus norvegicus, UniProt P07379); experiment: PEPCK Inhibition Assay
T1 sequence (P07379 whole entry): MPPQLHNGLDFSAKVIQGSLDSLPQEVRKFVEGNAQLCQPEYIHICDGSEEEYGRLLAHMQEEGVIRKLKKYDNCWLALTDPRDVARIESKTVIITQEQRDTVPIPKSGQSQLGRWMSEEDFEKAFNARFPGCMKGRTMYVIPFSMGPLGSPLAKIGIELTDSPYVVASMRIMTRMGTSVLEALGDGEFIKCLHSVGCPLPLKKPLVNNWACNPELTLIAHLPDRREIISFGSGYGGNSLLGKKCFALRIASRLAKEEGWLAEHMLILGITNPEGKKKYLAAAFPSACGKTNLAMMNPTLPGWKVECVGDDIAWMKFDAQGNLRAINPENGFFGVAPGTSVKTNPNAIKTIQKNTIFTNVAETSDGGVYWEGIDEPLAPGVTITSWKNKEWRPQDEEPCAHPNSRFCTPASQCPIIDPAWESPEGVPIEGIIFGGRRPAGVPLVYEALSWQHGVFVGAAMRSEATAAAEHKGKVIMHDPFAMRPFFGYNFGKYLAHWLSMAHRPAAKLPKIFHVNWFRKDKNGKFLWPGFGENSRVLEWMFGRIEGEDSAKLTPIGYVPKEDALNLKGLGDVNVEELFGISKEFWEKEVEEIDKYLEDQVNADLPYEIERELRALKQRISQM
Method: as §1

Phosphoenolpyruvate carboxykinase, cytosolic [GTP] [H477R], sequence (P07379 whole entry H477R): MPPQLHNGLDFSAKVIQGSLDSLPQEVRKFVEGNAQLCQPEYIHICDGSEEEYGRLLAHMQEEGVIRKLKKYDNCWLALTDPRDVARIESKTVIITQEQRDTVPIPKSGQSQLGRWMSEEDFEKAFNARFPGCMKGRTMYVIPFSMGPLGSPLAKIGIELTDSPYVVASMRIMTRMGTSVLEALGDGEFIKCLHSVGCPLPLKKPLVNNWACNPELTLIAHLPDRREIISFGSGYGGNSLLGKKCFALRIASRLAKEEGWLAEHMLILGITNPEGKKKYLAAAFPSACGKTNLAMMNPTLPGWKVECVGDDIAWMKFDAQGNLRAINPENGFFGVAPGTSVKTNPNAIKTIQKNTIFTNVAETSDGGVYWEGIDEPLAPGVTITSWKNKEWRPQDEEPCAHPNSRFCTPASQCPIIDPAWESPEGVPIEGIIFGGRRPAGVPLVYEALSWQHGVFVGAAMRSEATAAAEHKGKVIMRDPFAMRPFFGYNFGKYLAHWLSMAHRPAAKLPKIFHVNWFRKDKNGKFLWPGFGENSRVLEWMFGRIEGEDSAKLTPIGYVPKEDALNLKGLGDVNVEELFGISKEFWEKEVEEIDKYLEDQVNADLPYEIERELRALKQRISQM

Compound	Ki [1] [µM]	Ki [2] [µM]
C=C(OP(=O)(O)O)C(=O)O [PHOSPHOENOLPYRUVATE]	289	
O=C(O)CC(=O)C(=O)O [keto-Oxaloacetate]	441	
Nc1nc(O)c2ncn([C@@H]3O[C@H](COP(=O)(O)OP(=O)(O)C[P+]([O-])(O)O)[C@@H](O)[C@H]3O)c2n1 [β,γ-methyleneguanosine 5′-triphosphate]	696	150
O=C(O)C(=O)CS(=O)(=O)O [β-Sulfopyruvate]	37	
